Results: patent US7528153B2, “Deoxynojirimycin analogues and their uses as glucosylceramidase inhibitors” (Genzyme Corporation, priority 2003, dated 2009)

Experiments:
A-Galactosidase = target: T1, A-Galactosidase (Homo sapiens, UniProt P06280); assay: In vitro inhibition of lysosomal A-galactosidase (4-MU substrate, purified enzyme from spleen); assay type: biochemical; conditions: Table 3, read-out: Apparent in vitro IC50 value, A-Galactosidase
T1 construct: measured with appropriate 4-MU substrates using purified enzymes from spleen; from tissue; host or cells: spleen
T1 sequence (P06280 32-429): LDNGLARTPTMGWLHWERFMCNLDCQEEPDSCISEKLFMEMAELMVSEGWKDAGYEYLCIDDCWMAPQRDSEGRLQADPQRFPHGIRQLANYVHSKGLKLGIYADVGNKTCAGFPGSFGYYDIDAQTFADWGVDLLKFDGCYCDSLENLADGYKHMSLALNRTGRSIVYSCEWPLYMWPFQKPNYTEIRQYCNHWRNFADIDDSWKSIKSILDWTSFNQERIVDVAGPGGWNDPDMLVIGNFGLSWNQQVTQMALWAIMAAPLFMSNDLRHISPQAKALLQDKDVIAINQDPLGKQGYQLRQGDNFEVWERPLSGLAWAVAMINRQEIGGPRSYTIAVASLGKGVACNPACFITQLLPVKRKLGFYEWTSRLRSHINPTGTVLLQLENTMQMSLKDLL

Maltase = assay: In vitro inhibition of intestinal maltase; assay type: biochemical; conditions: Table 1
MEB4 culture = assay: Pigmentation of MEB4 melanoma culture; assay type: cell-based, murine; conditions: inhibition of glycosphingolipid synthesis in MEB4 culture
Excerpt: Two melanoma cultures, one dark pigmented (An) and the other very lightly pigmented (M14) show a clearly higher content of glucosylceramide (GlcCer) in the darkly pigmented culture both in the total cell extract and in a melanosomal fraction.

Bioavailability = assay type: in vivo; conditions: orally administered
Hexosaminidase = assay: In vitro inhibition of lysosomal hexosaminidase (4-MU substrate, purified enzyme from spleen); assay type: biochemical; conditions: Table 3, read-out: Apparent in vitro IC50 value, Hexosaminidase
Cellular toxicity = assay type: cell-based; conditions: at doses envisioned during therapy
b-Galactosidase = target: T2, b-Galactosidase (Homo sapiens, UniProt P16278); assay: In vitro inhibition of lysosomal b-galactosidase (4-MU substrate, purified enzyme from spleen); assay type: biochemical; conditions: Table 3, read-out: Apparent in vitro IC50 value, A b-Galactosidase
T2 construct: measured with appropriate 4-MU substrates using purified enzymes from spleen; from tissue; host or cells: spleen
T2 sequence (P16278 29-677): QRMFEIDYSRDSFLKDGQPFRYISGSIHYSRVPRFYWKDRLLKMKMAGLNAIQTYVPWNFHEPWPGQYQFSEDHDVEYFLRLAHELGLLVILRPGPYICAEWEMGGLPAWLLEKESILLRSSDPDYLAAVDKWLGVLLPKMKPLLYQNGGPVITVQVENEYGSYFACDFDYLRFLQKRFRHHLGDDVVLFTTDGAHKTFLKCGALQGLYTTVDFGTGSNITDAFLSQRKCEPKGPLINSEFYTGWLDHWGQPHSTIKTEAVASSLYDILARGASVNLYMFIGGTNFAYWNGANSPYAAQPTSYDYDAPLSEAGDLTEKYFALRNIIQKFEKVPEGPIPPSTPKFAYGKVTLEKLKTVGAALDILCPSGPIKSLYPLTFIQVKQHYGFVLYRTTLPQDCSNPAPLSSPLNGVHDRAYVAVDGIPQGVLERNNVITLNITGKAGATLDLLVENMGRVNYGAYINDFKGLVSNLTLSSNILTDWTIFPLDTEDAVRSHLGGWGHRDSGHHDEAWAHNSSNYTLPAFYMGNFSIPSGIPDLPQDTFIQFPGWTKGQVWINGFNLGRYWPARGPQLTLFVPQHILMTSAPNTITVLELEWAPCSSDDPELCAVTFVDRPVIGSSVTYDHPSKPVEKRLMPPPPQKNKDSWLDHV

human melanocytes = assay: Pigmentation / melanin production in melanocytes; assay type: cell-based; conditions: melanocytes of lighter and darker skin type, within a single culture passage
Excerpt: Iminosugars were designed that harbour optimal features for use in skin. Ceramide and glucosylceramide are important structural components of the stratum corneum and regulate water permeability of the skin. It is known that glucosylceramides together with other polar lipids are secreted into the extracellular space of the stratum corneum by lamellar bodies and are subsequently processed to ceramides. […] Iminosugars should therefore not interfere with the crucial generation of ceramide from glucosylceramide catalysed by lysosomal glucocerebrosidase.
The pharmaceutical application of the deoxynojirimycin analogues according to the invention and will be in post-inflammatory hyperpigmentation and skin inflammatory conditions. There is strong evidence that when administered systemically these deoxynojirimycin analogues have strong anti-inflammatory activity in vivo.

Metabolism = conditions: in vivo
[1] = target: T3, lysosomal alfa-glucosidase (Homo sapiens, UniProt P10253); assay: In vitro inhibition of lysosomal alfa-glucosidase (4-MU substrate, purified enzyme from spleen); assay type: biochemical; conditions: Table 3, read-out: Apparent in vitro IC50 value, a-Glucosidase
T3 construct: measured with appropriate 4-MU substrates using purified enzymes from spleen; from tissue; host or cells: spleen

[2] = test system: glycosphingolipid synthesis; conditions: 100 mg TID, Gaucher patients; cited from earlier work

SMILES: OC[C@@H]1[C@H](O)[C@H](O)[C@H](O)CN1CCCCCOCC12CC3CC(CC(C3)C1)C2 [N-(adamantane-1-yl-methoxypentyl)-L-ido-deoxynojirimycin]
- IC50 (A-Galactosidase): > 100 µM
- IC50 (Maltase): > 100 µM
- Pigmentation of MEB4 culture (MEB4 culture): loss of pigmentation
- Bioavailability (Bioavailability): well bioavailable
- IC50 (Hexosaminidase): > 100 µM
- Cellular toxicity (Cellular toxicity): no cellular toxicity
- IC50 (b-Galactosidase): > 100 µM
- Pigmentation / melanin production in melanocytes (human melanocytes): reduce melanin production
- Pigmentation / melanin production in melanocytes (human melanocytes; listed as ido-N-(5-adamantane-1-yl-methoxy-pentyl)deoxynojirimycin): significant decrease in pigmentation

SMILES: OC[C@@H]1[C@@H](O)[C@H](O)[C@@H](O)CN1CCCCCOCC12CC3CC(CC(C3)C1)C2 [N-(5-adamantane-1-yl-methoxy-pentyl)deoxynojirimycin, reference compound]
- IC50 (Maltase): > 25 µM
- Bioavailability (Bioavailability): highly bioavailable
- Cellular toxicity (Cellular toxicity): no intrinsic cellular toxicity
- Metabolism (Metabolism): metabolically inert

SMILES: CCCCN1C[C@H](O)[C@@H](O)[C@H](O)[C@H]1CO [N-butyl-deoxynojirimycin, reference compound]
- IC50 [1]: 0.8 µM
- IC50 (Hexosaminidase): > 100 µM
- IC50 (b-Galactosidase): > 100 µM
- Inhibition of glycosphingolipid synthesis [2]: 20-30%
